Experimental data: US12109204B2, “Methods for treating muscular dystrophies” (The Regents of the University of California, priority 2018, dated 2024)

What was measured:
Assay type in all cases: cell-based, murine
SSPN protein = SSPN protein immunoblot in C2C12 wild-type myotubes; settings: C2C12 cells, 1 μM-10 μM, 48 hours, immunoblot normalized to GAPDH (FIG. 10e)
Protocol: Cells were treated for 48 hours beginning at day 2 of differentiation with DMSO (vehicle control, ATCC), felodipine (Sigma), nilvadipine (Sigma), alloxazine (Sigma), GW5074 (Sigma), methylthioadenosine (Santa Cruz Biotechnology), or ezutromid (Cayman Chemicals) diluted in cell type specific differentiation media at doses listed in the figures. For gene expression studies, each treatment was performed in duplicate. For protein studies, each treatment was performed with single or double replicates. C2C12 murine myotubes treated for 48 hours were lysed using RIPA buffer (Thermo Fisher Scientific) containing a protease inhibitor cocktail (0.6 μg/ml pepstatin A, 0.5 μg/ml aprotinin, 0.5 μg/ml leupeptin, 0.1 mM PMSF, 0.75 mM benzamidine, 5 μM calpain I inhibitor, 5 μM calpeptin). […] The supernatant was collected, quantified for protein concentration using the DC protein assay (Bio-Rad), and normalized to 2 mg/ml in water and Laemmli sample buffer with a final concentration of 10% glycerol (Sigma-Aldrich), 5% beta-mercaptoethanol (Sigma-Aldrich), 3% sodium dodecyl sulfate (Sigma-Aldrich), and 0.05% bromophenol blue (Sigma-Aldrich). […] Autoradiography films were developed using a SRX-101A tabletop processor (Konica Minolta), scanned to a digital file, and analyzed by densitometry of bands using ImageJ version 1.51s. […]

C2C12 wild-type myotubes = assay: Fusion index and myotube morphology in wild-type myotubes
[1] = test system: hSSPN-EGFP myotubes (human sarcospan promoter reporter in C2C12); assay: hSSPN-EGFP reporter myotube assay (high-content imaging); settings: doses between 3.9 nm to 1 μM, 48 hours (FIG. 10a)

In the case of `CCOC(=O)C1=C(C)NC(C)=C(C(=O)OC)C1c1cccc(Cl)c1Cl` (centres unmarked) [Felodipine, 5-O-ethyl 3-O-methyl 4-(2,3-dichlorophenyl)-2,6-dimethyl-1,4-dihydropyridine-3,5-dicarboxylate], the SSPN protein levels (SSPN protein) was “increases sarcospan protein levels”, the SSPN protein levels (SSPN protein; listed as felodipine) was “increase in SSPN protein levels” and the “fusion index (nuclei in myosin heavy chain positive area/total nuclei in field)” value (C2C12 wild-type myotubes; wild-type myotubes (FIG. 12c-d)) was “does not increase fusion index”. For the same compound, the “formation of hypertrophic myotubes” value (C2C12 wild-type myotubes; wild-type myotubes (FIG. 12e-f)) was “does induce the formation of hypertrophic wild-type myotubes” and the “hSSPN-EGFP reporter activity, counterscreen” value [1] was “increased activity”.
